According to PubChem BioAssay (NCI):
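Test compounds were applied to cells in 96-well plates for 48 hours at 5 doses. TGI marks complete inhibition of growth.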

Tests used:
Assay in all cases: DTP human tumour cell line panel, 48 h
MDA-MB-435 = system: MDA-MB-435
RXF 393 renal = system: RXF 393 renal
KM12 colon = system: KM12 colon
786-0 renal = system: 786-0 renal
SF-295 CNS = system: SF-295 CNS
TK-10 renal = system: TK-10 renal
SK-MEL-28 melanoma = system: SK-MEL-28 melanoma
UACC-62 melanoma = system: UACC-62 melanoma
OVCAR-4 ovarian = system: OVCAR-4 ovarian
NCI/ADR-RES ovarian = system: NCI/ADR-RES ovarian

## Cn1c2ccccc2c2cc(N3CCCC3)c3c(c21)C(=O)N(c1ccccc1)C3=O
MDA-MB-435
  TGI: > 100 µM
RXF 393 renal
  TGI: 91.2 µM
KM12 colon
  TGI: > 100 µM
786-0 renal
  TGI: 95.5 µM
SF-295 CNS
  TGI: > 100 µM
TK-10 renal
  TGI: > 100 µM
SK-MEL-28 melanoma
  TGI: > 100 µM
UACC-62 melanoma
  TGI: > 100 µM
OVCAR-4 ovarian
  TGI: > 100 µM
NCI/ADR-RES ovarian
  TGI: > 100 µM

## COC(=O)[C@]1(c2cc3ccccc3[nH]2)CC2CN(C(=O)OCc3ccccc3)C1CC2=O (some centres not stated)
MDA-MB-435
  TGI: > 100 µM
RXF 393 renal
  TGI: 68.2 µM
KM12 colon
  TGI: > 100 µM
786-0 renal
  TGI: > 100 µM
SF-295 CNS
  TGI: > 100 µM
TK-10 renal
  TGI: > 100 µM
SK-MEL-28 melanoma
  TGI: > 100 µM
UACC-62 melanoma
  TGI: 58.7 µM
OVCAR-4 ovarian
  TGI: > 100 µM
NCI/ADR-RES ovarian
  TGI: > 100 µM

## O=C(CN1CCCCC1)Nc1ccc2c(c1)C1Oc3ccccc3CC1CO2 (configuration not stated)
MDA-MB-435
  TGI: 38.4 µM
KM12 colon
  TGI: 49.9 µM
786-0 renal
  TGI: 45.8 µM
SF-295 CNS
  TGI: 36.4 µM
TK-10 renal
  TGI: 50.9 µM
UACC-62 melanoma
  TGI: 34.1 µM
NCI/ADR-RES ovarian
  TGI: 88.3 µM

## CCCCc1ccc(Nc2nc(Cl)c3c(ncn3C3CC(Oc4ccc(C)cc4)C(COc4ccc(C)cc4)O3)n2)cc1 (configuration not stated)
MDA-MB-435
  TGI: > 100 µM
RXF 393 renal
  TGI: > 100 µM
KM12 colon
  TGI: > 100 µM
786-0 renal
  TGI: > 100 µM
SF-295 CNS
  TGI: > 100 µM
TK-10 renal
  TGI: > 100 µM
UACC-62 melanoma
  TGI: > 100 µM
OVCAR-4 ovarian
  TGI: > 100 µM
NCI/ADR-RES ovarian
  TGI: > 100 µM

## COC(=O)C(Cc1ccc(N(C)C)cc1)(NC(=O)c1ccccc1)P(=O)(OC)OC (configuration not stated)
RXF 393 renal
  TGI: > 100 µM
KM12 colon
  TGI: > 100 µM
SF-295 CNS
  TGI: > 100 µM
TK-10 renal
  TGI: > 100 µM
SK-MEL-28 melanoma
  TGI: > 100 µM
UACC-62 melanoma
  TGI: > 100 µM
OVCAR-4 ovarian
  TGI: > 100 µM

## Cc1c(Cl)cccc1N=NC(=O)NNc1cccc(Cl)c1C
MDA-MB-435
  TGI: 34.5 µM
786-0 renal
  TGI: 37.7 µM
TK-10 renal
  TGI: 29.6 µM
SK-MEL-28 melanoma
  TGI: 30.1 µM
UACC-62 melanoma
  TGI: 25.5 µM
OVCAR-4 ovarian
  TGI: 25.9 µM

## O=C(c1cccs1)N1CCCN(C(=O)c2cccs2)C1=S
MDA-MB-435
  TGI: > 100 µM
RXF 393 renal
  TGI: > 100 µM
KM12 colon
  TGI: > 100 µM
786-0 renal
  TGI: > 100 µM
SF-295 CNS
  TGI: > 100 µM
TK-10 renal
  TGI: > 100 µM
SK-MEL-28 melanoma
  TGI: > 100 µM
UACC-62 melanoma
  TGI: > 100 µM
NCI/ADR-RES ovarian
  TGI: > 100 µM

## COc1cc(Cc2cnc(N)nc2N)cc(OC)c1OCCCNc1ccc([N+](=O)[O-])cc1
MDA-MB-435
  TGI: 29.8 µM
RXF 393 renal
  TGI: 25.2 µM
KM12 colon
  TGI: 32.2 µM
786-0 renal
  TGI: 28 µM
TK-10 renal
  TGI: 32.7 µM
SK-MEL-28 melanoma
  TGI: 27.1 µM
UACC-62 melanoma
  TGI: 26.7 µM
OVCAR-4 ovarian
  TGI: 33.6 µM
NCI/ADR-RES ovarian
  TGI: 60 µM

## O=c1[nH]nc(Nc2ccccc2)c2nnn(C3CCCCC3)c12
MDA-MB-435
  TGI: > 100 µM
KM12 colon
  TGI: > 100 µM
786-0 renal
  TGI: > 100 µM
SF-295 CNS
  TGI: > 100 µM
TK-10 renal
  TGI: > 100 µM
SK-MEL-28 melanoma
  TGI: > 100 µM
OVCAR-4 ovarian
  TGI: > 100 µM
NCI/ADR-RES ovarian
  TGI: > 100 µM

## COC(=O)C1CCC(=O)N1C(c1cc(OC)c(OC)c(OC)c1)c1cccc2ccccc12 (configuration not stated)
MDA-MB-435
  TGI: > 100 µM
KM12 colon
  TGI: > 100 µM
786-0 renal
  TGI: > 100 µM
SF-295 CNS
  TGI: > 100 µM
TK-10 renal
  TGI: > 100 µM
SK-MEL-28 melanoma
  TGI: > 100 µM
UACC-62 melanoma
  TGI: > 100 µM
NCI/ADR-RES ovarian
  TGI: > 100 µM

## Cc1cc(Nc2ccc(NS(C)(=O)=O)cc2)c2c(ccc3nccc32)[nH]1
MDA-MB-435
  TGI: 30.5 µM
KM12 colon
  TGI: 36.2 µM
786-0 renal
  TGI: 45.2 µM
SF-295 CNS
  TGI: 60.5 µM
TK-10 renal
  TGI: > 100 µM
SK-MEL-28 melanoma
  TGI: 33.4 µM
UACC-62 melanoma
  TGI: 30.7 µM
OVCAR-4 ovarian
  TGI: 30.6 µM
NCI/ADR-RES ovarian
  TGI: > 100 µM
